Read-outs that look alike come from different tables or passages of the source.
Experiments:
endogenous STAT3 = experiment: Immunoprecipitation from cell lines with constitutively activated STAT3; assay type: binding, human (PANC-1 and DU145) and murine (4T1)
Protocol: Commercial HeLa cells were also treated with interferon gamma (INFΓ) in order to induce phosphorylated STAT3. The PC-3 STAT3 null cell line was used as a negative control.
The cells were grown to 50% to 70% confluence, then disrupted in freshly prepared ice-cold lysis buffer as described above for 45 minutes on ice. Lysates were then centrifuged, the supernatant collected, and protein concentration was determined as described above. […] Beads were then washed. Following the final wash, 60 μl of lysis buffer was added, and the resulting supernatant was subject to Western Blot analysis as described in Example 2.

BT474 xenograft = experiment: BT474 human breast tumor xenograft in CB.17 SCID mice; assay type: in vivo
HT1080 cells = experiment: MTT proliferation assay, HT1080; assay type: cell-based, human; settings: HT1080, 72 hr
SJSA-1 cells = experiment: MTT proliferation assay, SJSA-1; assay type: cell-based, human; settings: for Mean Abs (±SD): 72 hours
U87MG cells = experiment: MTT proliferation assay, U87MG; assay type: cell-based, human; settings: for % Inhibition (growth): U87mg cells treated for 72 hr.
MDA-MB 231 cells = experiment: Internalization of sdAb, anti-His staining, MDA-MB 231; assay type: cell-based; settings: 18 hours after sdAb addition
Protocol: (§1) The next day, the chambers were rinsed with fresh media and STAT3 VHH13 (SEQ ID NO:3) sdAb (diluted 1:10 in media) or TNF-α VHH66 (SEQ ID NO:45) sdAb was added to the chamber. An anti-HIV-1 Reverse Transcriptase (RT) sdAb was used as a negative control.
(§2) The slides were incubated for 18 hours after sdAb addition. The chambers were briefly rinsed with media and fixed in ice-cold methanol for 5-10 min. The chambers were then dried and stained with a fluorescent anti-His tag antibody (1:200) (Novus Biologicals, Littleton, Colo.) for 45 min at room temperature. The slides were rinsed in PBS for 5 minutes and mounted.

PANC-1 cells = experiment: Internalization of sdAb, anti-His staining, PANC-1; assay type: cell-based; settings: 18 hours after sdAb addition
Protocol: as §1, §2

STAT5 = experiment: Biacore 3000 protein binding, STAT5
STAT3 [1] = experiment: STAT3 reporter GloResponse SIE-luc2P/HEK293 assay, IL-6 induction; assay type: cell-based; settings: for decrease in RLU: highest concentration (55.8 μg/mL);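 for all read-outs here: SIE-luc2P/HEK293 reporter cells stimulated with IL-6 at 40 ng/mL (EC80) after pretreatment, luciferase luminescence (RLU) read the following day, triplicate wells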
SIE-luc2P/HEK293 cells = experiment: BCA protein concentration of reporter cells; assay type: cell-based; settings: highest concentration (55.8 μg/mL)
STAT3 [2] = experiment: Immunofluorescence of Stat3 nuclear translocation after IL-6; assay type: cell-based; settings: HEp-2, MDA-MB-231 and PANC-1 cells; sdAb 1:10 overnight; 100 ng/ml IL-6 15 min
Protocol: The cells were grown to confluence on chamber slides. […] As a negative control, no antibody was added to duplicate chambers. The slides were washed, and either serum-free media alone or 100 ng/ml recombinant human IL-6 (Peprotech, Rocky Hill, N.J.) in serum free media was added to the slides for 15 min at 37° C. The media was then removed and the chamber slides were fixed in ice cold 100% methanol for 10 min at −20° C.
Immunofluorescence assays were performed on the fixed slides. First, the slides were blocked with 3% BSA in PBS was done for one hour at room temperature. The primary antibody, Stat3(124H6) mouse monoclonal antibody (Cell Signaling Technology, Danvers, Mass.) was added to the slides at a 1:1000 dilution overnight in dark box at 4° C. The following day, the slides were washed and the secondary Alexa Fluor 488 anti-mouse IgG antibody (Cell Signaling Technology) was added at a 1:500 dilution and incubated for 1 hour at room temperature. The slides were then washed, mounted with mounting media and viewed with a fluorescence microscope.

VEGF-A = VEGF-A ELISA in ARPE-19 retinal cells; assay type: cell-based, human; settings: Experiment 2; for pg VEGF-A per μg protein: single wells
[3] = test system: Zika/DAKAR D41525 Senegal strain
EBOv (Makon) [4] = settings: Hela; EBOV (Makona); 48 hours
EBOv (Makon) [5] = settings: HFF; EBOV (Makona); 48 hours
DU145 xenograft = experiment: DU145 prostate cancer xenograft model; settings: SBT-100 5 mg/kg bw i.p. BID×14
[6] = SB-01 1 mg/kg ip tid × 14 first day 2 doses

anti-STAT3 VHH13: anti-STAT3 single-domain antibody, SEQ ID NO:3; bacterially produced, referred to as SBT-100
binding to Phospho-STAT3 (endogenous STAT3; HeLa lysate (interferon gamma treated)): bound | immunoprecipitation of endogenous STAT3 (endogenous STAT3; PANC-1, DU145 and 4T1 lysates): immunoprecipitated | immunoprecipitation in STAT3 null cell line (endogenous STAT3; PC-3 (negative control)): No bands | effect on growth of BT474 tumors compared to control (BT474 xenograft; 1 mg/kg ip tid × 14): did not reduce the growth of BT474 tumors in vivo | % TGD (BT474 xenograft; [6]): 22% | MTV (n) Day 60 (BT474 xenograft; [6]): 550 | Median TTE (BT474 xenograft; [6]): 60.0 | IC50 (HT1080 cells): IC50 = 33 μg/ml | IC50 (SJSA-1 cells; SJSA, 72 hr): IC50 = 51 μg/ml | Mean Abs (±SD) (SJSA-1 cells; Table 72 (experiment 5a), SBT-100 3.13 μg/ml alone): 0.278 ± 0.057 | Mean Abs (±SD) (SJSA-1 cells; Table 72 (experiment 5a), SBT-100 6.25 μg/ml alone): 0.258 ± 0.097 | Mean Abs (±SD) (SJSA-1 cells; Table 72 (experiment 5a), SBT-100 25 μg/ml alone): 0.221 ± 0.034 | Mean Abs (±SD) (SJSA-1 cells; Table 72 (experiment 5a), SBT-100 50 μg/ml alone): 0.066 ± 0.003 | Mean Abs (±SD) (SJSA-1 cells; Table 72 (experiment 5a), SBT-100 100 μg/ml alone): 0.058 ± 0.002 | Mean Abs (±SD) (SJSA-1 cells; Table 73 (Experiment 2, 5b), SBT-100 3.13 μg/ml alone): 0.774 ± 0.068 | Mean Abs (±SD) (SJSA-1 cells; Table 73 (Experiment 2, 5b), SBT-100 6.25 μg/ml alone): 0.835 ± 0.058 | Mean Abs (±SD) (SJSA-1 cells; Table 73 (Experiment 2, 5b), SBT-100 25 μg/ml alone): 0.781 ± 0.057 | Mean Abs (±SD) (SJSA-1 cells; Table 73 (Experiment 2, 5b), SBT-100 50 μg/ml alone): 0.460 ± 0.038 | Mean Abs (±SD) (SJSA-1 cells; Table 73 (Experiment 2, 5b), SBT-100 100 μg/ml alone): 0.091 ± 0.002 | % Inhibition (growth) (U87MG cells; Dose 50 μg/ml): 18% | % Inhibition (growth) (U87MG cells; Dose 100 μg/ml): 51% | % Inhibition (growth) (U87MG cells; Dose 200 μg/ml): 62% | IC50 (U87MG cells; U87mg, 72 hr): IC50 = 65 μg/ml | % Inhibition (U87MG cells; U87mg, SBT-100 50 μg/ml, 72 hr): 18% | % Inhibition (U87MG cells; U87mg, SBT-100 100 μg/ml, 72 hr): 51% | % Inhibition (U87MG cells; U87mg, SBT-100 200 μg/ml, 72 hr): 62% | staining with fluorescent anti-His tag antibody (MDA-MB 231 cells): positive cytoplasmic staining | staining with fluorescent anti-His tag antibody (PANC-1 cells): positive cytoplasmic staining | binding to STAT5 (STAT5; Biacore 3000, sdAb immobilized): bound | Result (binding) (STAT5; Table 50, sdAb immobilized as ligand, analyte STAT5 protein 500 nM): Binding | effect on IL-6 induction of the STAT3 reporter (STAT3 [1]; 24 and 48 hours treatment, VHH13 and VHH69 at highest concentration, VHH14 at both concentrations): Inhibition of IL-6 | decrease in RLU (STAT3 [1]; 24 hours treatment prior to IL-6 induction): greater than 10 fold | decrease in RLU (STAT3 [1]; 48 hours treatment prior to IL-6 induction): greater than 1,000 fold | decrease in protein (SIE-luc2P/HEK293 cells): approximately 2 fold | translocation of Stat3 to the nucleus following IL-6 treatment (STAT3 [2]): blocks the translocation of Stat3 to the nucleus | pg VEGF-A per μg protein (VEGF-A; ARPE-19, 0.1 μg/well, 12 Hr): 2.4 pg per μg protein | pg VEGF-A per μg protein (VEGF-A; ARPE-19, 10 μg/well, 24 Hr): 4.4 pg per μg protein | decrease in VEGF-A (VEGF-A; ARPE-19, 100 μg/mL, 12 hour treatment): 20.1% | decrease in VEGF-A (VEGF-A; ARPE-19, 100 μg/mL, 24 hour treatment): 7.5% | pg VEGF-A/μg protein as % of the negative control (VEGF-A; ARPE-19, 100 μg/mL, 48 hours): 11% | decrease in VEGF-A (VEGF-A; lower concentrations (10, 1 or 0.1 μg/ml)): not seen | EC50 [3]: 11.04 ug/m | EC90 [3]: 48.11 µg/mL | EC50 (EBOv (Makon) [4]): 19.02 ug/m | EC90 (EBOv (Makon) [4]): 58.72 µg/mL | EC50 (EBOv (Makon) [5]): 38.36 ug/m | EC90 (EBOv (Makon) [5]): 66.43 µg/mL | % treatment/control (DU145 xenograft): 74.8% | mean tumor size (±S.E.) at termination (day 28) (DU145 xenograft): 601.83±131.51 | mean tumor size (±SE) at last day of dosing (Day 14) (DU145 xenograft): 364.14±51.64 | tumor doubling time (DU145 xenograft; control 14.57 days): 18.19 days | mean tumor growth inhibition at the end of the study (DU145 xenograft; p=0.29): 26.6%

Reference: patent publication US11370847B2, “Single domain antibodies directed against intracellular antigens” (Singh Biotechnology, LLC, priority 2014, dated 2022)
